Drawing on US20100179089A1, “Compositions and Methods to Manage the Inflammatory Basis of Chronic Disease Conditions and Maintain an Optimal Immune Response in Elderly” (priority 2009, published 2010), this text covers Protein synthesis, Muscle protein synthesis and Muscle protein breakdown for two compounds.

For one assay, the system named is protein synthesis. The experiment in a line: Amino acid supplementation and protein synthesis in normal, inflamed and inflamed with DHA conditions (FIG. 4). To be noted: conditions of inflammation (FIG. 4). An excerpt:
Given the observed changes in protein intake and observed changes in protein synthesis in aging, it is believed that a hyperinflammed state compromises protein synthesis and further accentuates chronic disease related to arginine deficiency and malnutrition.
Omega-3 fatty acids, including but not limited to alpha-linolenic acid (ALA), eicosapentaenoic (EPA) and docosahexaenoic acids (DHA); omega-6 linoleic acid; and borage oil (also an omega-6 fatty acid) are currently used in different diets with the intention to improve immune dysfunction. […] Used with omega-3 fatty acids, arginine is believed to be more available to provide a normal response under conditions of inflammation. Dietary intake of omega-3 fatty acids by the elderly may favorably shift the balance in the production of PGE2, via […] and downregulation of arginase (as shown in FIG. 6) and, consequently, help avoid arginine deficiency and thereby improve or maintain optimal immune system function. […] The products of omega-6 fatty acid metabolism are believed to contribute to arginine deficiency and inflammation in this way. There have been numerous studies showing the benefits of dietary omega-3 fatty acids over omega-6 fatty acids in various physiologic conditions including coronary artery disease, chronic inflammatory conditions such as cancer, and other inflammatory mediated states.

For assay [1], the system named is muscle protein synthesis. To be noted: cited from earlier work.
Assay [2] deals with muscle protein synthesis. To be noted: pigs with a sepsis-like syndrome, arginine supplementation; cited from earlier work.

Where two headings read alike, the source gives them in different places.

`CC/C=C\C/C=C\C/C=C\C/C=C\C/C=C\C/C=C\CCC(=O)O` [DHA, docosahexaenoic acids]: the Protein synthesis entry in the assay with protein synthesis is on record as “improves the efficacy of arginine delivery in promoting protein synthesis”.

With `N=C(N)NCCC[C@H](N)C(=O)O` [arginine], the Muscle protein synthesis entry is on record as “stimulated” in the assay on muscle protein synthesis [1] (anesthetized rabbits, infusion) and “improved” with muscle protein synthesis [2]. For the same compound, the Muscle protein breakdown result with muscle protein synthesis [1] (post-absorptive rabbits, arginine added to the amino acid solution) is reported as “unchanged”.
